Drawing on PubChem BioAssay AID1259407 (Chemical Carcinogenesis Research Information System (CCRIS), 2018), this text covers mutagenic call for five molecules.

SMILES strings stand for the structures. Active and inactive are the calls of the source. The rule behind the calls is not given here.

The series relates to CCRIS mutagenicity, Ames/micronucleus/aberration tests. Kind of series: CCRIS mutagenicity studies.
Where [1] appears, read: Test System: AMES SALMONELLA TYPHIMURIUM, Strain/Indicator: TA100, Metabolic Activation: NONE, Method: PREINCUBATION
[2] abbreviates: Test System: AMES SALMONELLA TYPHIMURIUM, Strain/Indicator: TA1535, Metabolic Activation: NONE, Method: PREINCUBATION
Setting [3] is: Test System: AMES SALMONELLA TYPHIMURIUM, Strain/Indicator: TA100, Metabolic Activation: NONE, Method: STANDARD PLATE.
Setting [4] is: Test System: AMES SALMONELLA TYPHIMURIUM, Strain/Indicator: TA100, Metabolic Activation: NONE.

Consider `C=CCOCC1CO1` (stereo unspecified), for which the mutagenic call (End Point: IN VITRO CHROMOSOMAL ABERRATIONS, Test System: CHL CELLS, Metabolic Activation: NONE) was “active; positive (structural changes)”; the mutagenic call (End Point: IN VITRO CHROMOSOMAL ABERRATIONS, Test System: CHL CELLS, Metabolic Activation: RAT, LIVER, S-9, SODIUM PHENOBARBITAL AND 5,6-BENZOFLAVONE) was “active; positive (structural changes”; the mutagenic call (Test System: AMES SALMONELLA TYPHIMURIUM, Strain/Indicator: TA98, Metabolic Activation: HAMSTER, LIVER, S-9, AROCLOR 1254, Method: PREINCUBATION) was “inactive; negative”; the mutagenic call (Test System: AMES SALMONELLA TYPHIMURIUM, Strain/Indicator: TA98, Metabolic Activation: NONE, Method: PREINCUBATION) was “inactive; negative”; the mutagenic call (Test System: AMES SALMONELLA TYPHIMURIUM, Strain/Indicator: TA98, Metabolic Activation: RAT, LIVER, S-9, AROCLOR 1254, Method: PREINCUBATION) is “inactive; negative”; the mutagenic call (Test System: AMES SALMONELLA TYPHIMURIUM, Strain/Indicator: TA100, Metabolic Activation: HAMSTER, LIVER, S-9, AROCLOR 1254, Method: PREINCUBATION) is “active; positive”. For the same molecule, the mutagenic call under setting [1] is “active; positive”; the mutagenic call (Test System: AMES SALMONELLA TYPHIMURIUM, Strain/Indicator: TA100, Metabolic Activation: RAT, LIVER, S-9, AROCLOR 1254, Method: PREINCUBATION) is “active; positive”; the mutagenic call (Test System: AMES SALMONELLA TYPHIMURIUM, Strain/Indicator: TA1535, Metabolic Activation: HAMSTER, LIVER, S-9, AROCLOR 1254, Method: PREINCUBATION) was “active; positive”; the mutagenic call under setting [2] was “active; positive”; the mutagenic call (Test System: AMES SALMONELLA TYPHIMURIUM, Strain/Indicator: TA1535, Metabolic Activation: RAT, LIVER, S-9, AROCLOR 1254, Method: PREINCUBATION) is “active; positive”; the mutagenic call (Test System: AMES SALMONELLA TYPHIMURIUM, Strain/Indicator: TA1537, Metabolic Activation: HAMSTER, LIVER, S-9, AROCLOR 1254, Method: PREINCUBATION) was “inactive; negative”. For the same molecule, the mutagenic call is “inactive; negative” (Test System: AMES SALMONELLA TYPHIMURIUM, Strain/Indicator: TA1537, Metabolic Activation: NONE, Method: PREINCUBATION) and “inactive; negative” (Test System: AMES SALMONELLA TYPHIMURIUM, Strain/Indicator: TA1537, Metabolic Activation: RAT, LIVER, S-9, AROCLOR 1254, Method: PREINCUBATION).
Turning to `O=[N+]([O-])c1c2ccccc2c2ccc3cccc4ccc1c2c43`, the mutagenic call was “inactive; negative” (Test System: AMES SALMONELLA TYPHIMURIUM, Strain/Indicator: TA98 (1,8-DNP6), Metabolic Activation: NONE, Method: STANDARD PLATE); “inactive; negative” (Test System: AMES SALMONELLA TYPHIMURIUM, Strain/Indicator: TA98 (NR), Metabolic Activation: NONE, Method: STANDARD PLATE); “inactive; negative” (Test System: AMES SALMONELLA TYPHIMURIUM, Strain/Indicator: TA98, Metabolic Activation: NONE, Method: STANDARD PLATE); “inactive; negative” (Test System: AMES SALMONELLA TYPHIMURIUM, Strain/Indicator: TA98, Metabolic Activation: NONE, Method: STANDARD PLATE (ANAEROBIC)); “inactive; negative” (Test System: AMES SALMONELLA TYPHIMURIUM, Strain/Indicator: TA98, Metabolic Activation: RAT, LIVER, HEPATOCYTES, AROCLOR 1254); “active; positive” (Test System: AMES SALMONELLA TYPHIMURIUM, Strain/Indicator: TA98, Metabolic Activation: RAT, LIVER, S-9, 3-METHYLCHOLANTHRENE, Method: STANDARD PLATE). Moreover, the mutagenic call runs as follows: (Test System: AMES SALMONELLA TYPHIMURIUM, Strain/Indicator: TA98, Metabolic Activation: RAT, LIVER, S-9, AROCLOR 1254, Method: STANDARD PLATE) “active; positive”; (Test System: AMES SALMONELLA TYPHIMURIUM, Strain/Indicator: TA98, Metabolic Activation: RAT, LIVER, S-9, BETA-NAPHTHOFLAVONE, Method: STANDARD PLATE) “active; positive”; (Test System: AMES SALMONELLA TYPHIMURIUM, Strain/Indicator: TA98, Metabolic Activation: RAT, LIVER, S-9, PHENOBARBITAL, Method: STANDARD PLATE) “inactive; negative”; under setting [3], “inactive; negative”; (Test System: AMES SALMONELLA TYPHIMURIUM, Strain/Indicator: TA100, Metabolic Activation: RAT, LIVER, S-9, AROCLOR 1254 (20 OR 50 µL), Method: STANDARD PLATE) “active; positive”; (Test System: CHINESE HAMSTER OVARY, Strain/Indicator: CHO-K1-BH4 (HGPRT), Metabolic Activation: NONE) “inactive; negative”. The mutagenic call reads like this: (Test System: CHO/HGPRT, Strain/Indicator: CHO-K1-BH4, Metabolic Activation: NONE) “inactive; negative”; (Test System: CHO/HGPRT, Strain/Indicator: CHO-K1-BH4, Metabolic Activation: RAT, LIVER, HEPATOCYTES) “inactive; negative”; (Test System: CHO/HGPRT, Strain/Indicator: CHO-K1-BH4, Metabolic Activation: RAT, LIVER, HEPATOCYTES, 3-METHYLCHOLANTHRENE) “inactive; negative”; (Test System: CHO/HGPRT, Strain/Indicator: CHO-K1-BH4, Metabolic Activation: RAT, LIVER, HEPATOCYTES, AROCLOR 1254) “inactive; negative”; (Test System: CHO/HGPRT, Strain/Indicator: CHO-K1-BH4, Metabolic Activation: RAT, LIVER, S-9) “inactive; negative”; (Test System: CHO/HGPRT, Strain/Indicator: CHO-K1-BH4, Metabolic Activation: RAT, LIVER, S-9, 3-METHYLCHOLANTHRENE) “inactive; negative”. Moreover, the mutagenic call (Test System: CHO/HGPRT, Strain/Indicator: CHO-K1-BH4, Metabolic Activation: RAT, LIVER, S-9, AROCLOR 1254) was “inactive; negative”.
Take `CCCCCC(O)/C=C/C=O` (stereo unspecified): the mutagenic call reads like this: (End Point: IN VITRO CHROMOSOMAL ABERRATIONS, Test System: RAT HEPATOCYTES, Metabolic Activation: NONE) “active; positive”; (End Point: IN VITRO CHROMOSOMAL ABERRATIONS, Test System: SWINE- BRAIN ENDOTHELIAL CELLS, Metabolic Activation: NONE) “active; positive”; (End Point: IN VITRO MICRONUCLEUS, Test System: RAT HEPATOCYTES, Metabolic Activation: NONE) “active; positive”; (End Point: IN VITRO MICRONUCLEUS, Test System: SWINE- BRAIN ENDOTHELIAL CELLS, Metabolic Activation: NONE) “active; positive”; under setting [4], “inactive; negative”; (Test System: AMES SALMONELLA TYPHIMURIUM, Strain/Indicator: TA104, Metabolic Activation: NONE) “inactive; negative”. The mutagenic call (Test System: CHINESE HAMSTER V-79, Strain/Indicator: V-79/6-THIOGUANINE, Metabolic Activation: NONE) was “active; positive” and the mutagenic call (Test System: MOUSE LYMPHOMA, Strain/Indicator: L5178Y (TK+/TK-), Metabolic Activation: NONE, Method: SUSPENSION/PLATE) is “active; positive; administered as acetate”.
Consider `c1ccc(CC2CO2)cc1` (stereo unspecified), for which the mutagenic call reads like this: under setting [1], “active; positive”; under setting [3], “active; positive”; under setting [2], “active; positive”; (Test System: AMES SALMONELLA TYPHIMURIUM, Strain/Indicator: TA1535, Metabolic Activation: NONE, Method: STANDARD PLATE) “active; positive”.
`COC(=O)C(N)Cc1ccc(Cl)cc1` (stereo unspecified): the mutagenic call was “inactive; negative” (Test System: AMES SALMONELLA TYPHIMURIUM, Strain/Indicator: TA98, Metabolic Activation: NONE); “inactive; negative” under setting [4]; “inactive; negative” (Test System: AMES SALMONELLA TYPHIMURIUM, Strain/Indicator: TA1535, Metabolic Activation: NONE); “inactive; negative” (Test System: AMES SALMONELLA TYPHIMURIUM, Strain/Indicator: TA1537, Metabolic Activation: NONE); “inactive; negative” (Test System: E. COLI, Strain/Indicator: AB2462 UVRA, Metabolic Activation: NONE, Method: SPOT TEST); “inactive; negative” (Test System: E. COLI, Strain/Indicator: WP6 POLA, Metabolic Activation: NONE, Method: SPOT TEST).
